Key:
[1] = Nephelometric determination of free Zn ions in the presence of polyols; format: physicochemical; settings: 35° C., acetate buffer pH=6.0; for Percentage of free (uncomplexed) ions: of total amount, 26 mg Zn in 50 ml; for Zn ions free in solution: standardized to the same Zn ion concentration (26 mg in 50 ml)
Procedure: 10 ml of zinc gluconate solution (2 g of zinc gluconate and 250 ml of deionized water) are mixed with 10 ml of polyol solution (1.0 g of sugar or sugar alcohol dissolved in 25 ml of deionized water) and 2 ml of acetate buffer (pH=6.0) and thermostatted at 35° C. in a cuvette.
1 molar NaHCO3 solution is subsequently added dropwise in small amounts, and the turbidity is determined using a turbidity photometer.
Isomalt, sucrose, glucose, hard isomalt candies, the zinc gluconate which was used as a source of zinc and two commercial products are compared, the overall amount of Zn ions in each case corresponding to 26 mg in 50 ml of solution.

Staphylococcus aureus = test: Growth of Staphylococcus aureus in CASO medium with added sugar alcohol, optical density OD578 versus control; format: cell-based; settings: 16 h, read-out: growth reduced to
Procedure: Staphylococcus aureus was cultivated at 37° C. in CASO medium to which, in addition to the carbon source glucose (5% strength), isomalt (0.58 M) had been added. The growth of the bacteria cultures in a shaking flask was determined after 16 h by means of the optical density (OD578) and compared with a control (CASO medium without isomalt). It was observed that in all experiments the growth of the cultures which were grown in isomalt was inhibited by more than 50%.

[2] = Godfrey et al. 1992; Zarembo et al. 1992; U.S. Pat. Nos. 5,409,905 and 5,002,970; cited from earlier work
[3] = Dissolution rate of sugar alcohols; format: physicochemical
rhinoviruses = settings: Merluzzi et al. 1989; cited from earlier work
colds = settings: free zinc ions; Mossad et al. 1996, Godfrey et al. 1996; cited from earlier work

O=C[C@H](O)[C@@H](O)[C@H](O)[C@H](O)CO [Glucose]
Percentage of free (uncomplexed) ions [1]: 50% | Zn ions free in solution [1]: 13.00 mg in 50 ml of solution

OC[C@@H](O)[C@@H](O)[C@H](O)[C@@H](O)CO [sorbitol]
activity at 580000 µM (Staphylococcus aureus): ~75% | zinc-complexing action [2]: zinc-complexing action

OC[C@@H](O)[C@@H](O)[C@H](O)[C@H](O)CO [mannitol]
zinc-complexing action [2]: zinc-complexing action

zinc gluconate [Zn gluconate]
Percentage of free (uncomplexed) ions [1]: 64% | Zn ions free in solution [1]: 14.62 mg in 50 ml of solution

OC[C@H]1O[C@@](CO)(O[C@H]2O[C@H](CO)[C@@H](O)[C@H](O)[C@H]2O)[C@@H](O)[C@@H]1O [Sucrose]
Percentage of free (uncomplexed) ions [1]: 48% | Zn ions free in solution [1]: 12.40 mg in 50 ml of solution

OC[C@@H](O)[C@@H](O)[C@H](O)[C@H](O)CO[C@H]1O[C@H](CO)[C@@H](O)[C@H](O)[C@H]1O [1,1-GPM, 1-O-α-D-glucopyranosyl-D-mannitol]
dissolution rate compared with 1,6-GPS [3]: considerably lower dissolution rate than 1,6-GPS

zinc ions
antiviral effects (rhinoviruses): antiviral effects are a direct function of the amount of free Zn^2+ ions | duration and severity of the symptoms of colds (colds): markedly reduces both the duration and the severity of the symptoms of colds
